# From patent publication US7166590B2, “Amino acid derivatives” (Ono Pharmaceutical Co., Ltd., priority 1997, dated 2007)
# Counter-ions that a name gives are not always drawn.
# Biological target: T1, N-type calcium channel (Homo sapiens, UniProt Q00975)
# T1 construct: endogenous in cells
# Experiment: Determination of inhibitory activity on N-type calcium channel (Fura-2 calcium influx, KCl depolarization, with nifedipine)
# Type: cell-based
# Conditions: compound at final concentration of 3 μM, depolarized by 80 mM potassium chloride, Fura-2 fluorescence, read-out: Inhibitory activity on Ca influx (%)
# Protocol: Determination of Inhibitory Activity on N-Type Calcium Channel:
# Cell line was differentiated according to the method described in FEBS Letters, 235, 178-182, 1988. The cell was loaded with fluorescent reagent, Fura-2•AM (at the final concentration of 10 μM), at 37° C. for 30 minutes and suspended in Krebs-buffer containing HEPES (25 mM) to obtain the cell suspension. The obtained cell suspension was incubated in the presence or absence of the compounds of the present invention with nifedipine for 5 minutes. The cell was depolarized by adding potassium chloride solution (at the final concentration of 80 mM) thereto and then a fluorescence intensity at the emission wavelength of 500 nm excited by the UV of 340 nm and 380 nm alternately was measured using the intracellular calcium analyzer (Nippon Bunko Co., CAF-110). The inhibitory activity of the compound of the present invention (at the final concentration of 3 μM) on calcium influx into the cell was calculated from the difference in changing the fluorescence intensity at peak (ΔR) according to the following equation. [formula]
# T1 sequence (Q00975 whole entry): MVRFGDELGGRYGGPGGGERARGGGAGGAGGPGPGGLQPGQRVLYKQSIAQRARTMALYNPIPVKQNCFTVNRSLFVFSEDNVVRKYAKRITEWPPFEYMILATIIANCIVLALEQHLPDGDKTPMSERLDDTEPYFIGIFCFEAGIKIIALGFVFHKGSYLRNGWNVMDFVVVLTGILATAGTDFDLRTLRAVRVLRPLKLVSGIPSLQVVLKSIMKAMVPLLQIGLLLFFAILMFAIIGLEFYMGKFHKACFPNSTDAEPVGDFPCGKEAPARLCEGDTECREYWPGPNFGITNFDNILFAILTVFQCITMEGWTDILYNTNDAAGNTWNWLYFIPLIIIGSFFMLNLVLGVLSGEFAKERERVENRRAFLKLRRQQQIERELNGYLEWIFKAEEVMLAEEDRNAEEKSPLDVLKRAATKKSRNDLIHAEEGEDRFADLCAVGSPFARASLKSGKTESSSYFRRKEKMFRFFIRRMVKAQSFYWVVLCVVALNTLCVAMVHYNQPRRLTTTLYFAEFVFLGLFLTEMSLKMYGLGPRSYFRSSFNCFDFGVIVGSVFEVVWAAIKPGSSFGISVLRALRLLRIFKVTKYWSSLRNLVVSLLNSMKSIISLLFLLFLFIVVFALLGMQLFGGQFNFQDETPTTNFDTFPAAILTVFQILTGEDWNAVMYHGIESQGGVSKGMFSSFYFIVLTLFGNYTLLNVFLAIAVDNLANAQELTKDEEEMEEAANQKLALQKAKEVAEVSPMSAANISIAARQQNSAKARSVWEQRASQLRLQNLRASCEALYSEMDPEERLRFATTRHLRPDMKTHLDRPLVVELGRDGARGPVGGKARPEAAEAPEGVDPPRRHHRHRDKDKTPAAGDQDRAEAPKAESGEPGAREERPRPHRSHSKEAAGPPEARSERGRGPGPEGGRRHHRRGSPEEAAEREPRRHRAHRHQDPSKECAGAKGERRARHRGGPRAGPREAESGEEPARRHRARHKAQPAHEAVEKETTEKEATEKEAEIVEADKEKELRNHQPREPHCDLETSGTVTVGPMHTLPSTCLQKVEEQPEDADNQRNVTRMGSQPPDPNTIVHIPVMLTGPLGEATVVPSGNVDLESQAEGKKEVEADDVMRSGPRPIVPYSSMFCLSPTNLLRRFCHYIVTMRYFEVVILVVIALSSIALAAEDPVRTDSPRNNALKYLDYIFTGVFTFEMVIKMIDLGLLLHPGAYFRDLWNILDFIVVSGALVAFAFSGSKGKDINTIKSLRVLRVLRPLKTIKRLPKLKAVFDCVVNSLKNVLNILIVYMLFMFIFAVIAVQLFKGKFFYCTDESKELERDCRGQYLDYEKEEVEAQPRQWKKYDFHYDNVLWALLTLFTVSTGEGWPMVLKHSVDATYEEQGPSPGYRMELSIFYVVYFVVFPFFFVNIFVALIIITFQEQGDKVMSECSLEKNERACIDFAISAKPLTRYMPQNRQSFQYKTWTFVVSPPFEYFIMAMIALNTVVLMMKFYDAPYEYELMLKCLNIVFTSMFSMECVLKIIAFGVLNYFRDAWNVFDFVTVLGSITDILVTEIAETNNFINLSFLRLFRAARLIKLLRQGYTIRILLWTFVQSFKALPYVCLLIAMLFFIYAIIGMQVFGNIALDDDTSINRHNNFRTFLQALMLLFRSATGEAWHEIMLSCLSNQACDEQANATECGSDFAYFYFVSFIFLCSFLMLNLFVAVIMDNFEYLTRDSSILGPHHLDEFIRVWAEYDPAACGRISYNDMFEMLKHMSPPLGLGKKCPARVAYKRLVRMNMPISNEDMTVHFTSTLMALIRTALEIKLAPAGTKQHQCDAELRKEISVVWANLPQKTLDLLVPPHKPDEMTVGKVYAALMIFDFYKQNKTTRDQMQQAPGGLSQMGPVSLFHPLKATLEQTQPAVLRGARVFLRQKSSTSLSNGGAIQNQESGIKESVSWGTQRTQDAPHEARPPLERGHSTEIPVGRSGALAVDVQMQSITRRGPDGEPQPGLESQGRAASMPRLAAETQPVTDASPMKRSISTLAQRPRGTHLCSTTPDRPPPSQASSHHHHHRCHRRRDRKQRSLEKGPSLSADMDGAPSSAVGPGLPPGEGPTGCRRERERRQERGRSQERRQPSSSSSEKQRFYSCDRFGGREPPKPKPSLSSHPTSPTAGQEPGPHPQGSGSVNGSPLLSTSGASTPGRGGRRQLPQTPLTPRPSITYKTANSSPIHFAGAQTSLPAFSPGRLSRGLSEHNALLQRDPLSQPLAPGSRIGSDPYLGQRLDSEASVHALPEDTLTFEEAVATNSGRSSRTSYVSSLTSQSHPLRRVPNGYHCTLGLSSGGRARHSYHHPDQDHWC
row,SMILES,inhibition at 3 µM [%]
1,"COc1ccc(CNC(=O)[C@H](COCC2CCCCC2)NS(=O)(=O)c2ccccc2)cc1 [Example 6(22), (2S)-N-(4-methoxybenzyl)-3-cyclohexylmethoxy-2-phenylsulfonylamino-propanamide]",79
2,"O=C(N[C@@H](CSCC1CCCCC1)C(=O)NCc1ccc(Oc2ccccc2)cc1)[C@@H]1CSCN1 [Example 9(13), (2R)-N-(4-phenoxybenzyl)-3-cyclohexylmethylthio-2-((4R)-thiazolidin-4-ylcarbonylamino)propanamide.hydrochloride]",88
3,"COc1ccc(CNC(=O)[C@H](CSCC2CCCCC2)NC(=O)[C@@H]2CSCN2C(=O)OC(C)(C)C)cc1 [Example 6(44), (2R)-N-(4-methoxybenzyl)-3-cyclohexylmethylthio-2-((4R)-3-t-butoxycarbonyl-thiazolidin-4-ylcarbonylamino)propanamide]",86
4,"CC(C)(C)OC(=O)N1CSC[C@H]1C(=O)N[C@@H](CSCC1CCCCC1)C(=O)NCc1ccc(Oc2ccccc2)cc1 [Example 6(68), (2R)-N-(4-penoxybenzyl)-3-cyclohexylmethylthio-2-((4R)-3-t-butoxycarbonyl-thiazolidin-4-ylcarbonylamino)propanamide]",73
5,"COc1ccc(CNC(=O)[C@H](CSCC2CCCCC2)NC(=O)OC(C)(C)C)cc1 [Example 2(80), (2R)-N-(4-methoxybenzyl)-3-cyclohexylmethylthio-2-t-butoxycarbonylamino-propanamide]",87
6,"COc1ccc(CNC(=O)[C@H](COCC2CCCCC2)NC(=O)C2CCCCC2)cc1 [Example 6(27), (2S)-N-(4-methoxybenzyl)-3-cyclohexylmethoxy-2-cyclohexylcarbonylamino-propanamide]",72
7,"CC(C)(C)OC(=O)N[C@@H](COCC1CCCCC1)C(=O)NCc1ccc([N+](=O)[O-])cc1 [Example 2(86), (2S)-N-(4-nitrobenzyl)-3-cyclohexylmethoxy-2-t-butoxycarbonylamino-propanamide]",83
8,COc1ccc(CNC(=O)[C@H](COCC2CCCCC2)NC(=O)OC(C)(C)C)cc1 [compound 2],75
9,"CC(C)(C)OC(=O)N[C@@H](CCC(=O)OCc1ccc([N+](=O)[O-])cc1)C(=O)OC1CCCC1 [Example 2(29), (2S)-4-(4-nitrobenzyloxycarbonyl)-2-t-butoxycarbonylaminobutanoic acid.cyclopentyl ester]",75
